Measurements taken from US20230072528A1, “METHODS FOR DISCONTINUING A TREATMENT WITH A TYROSINE KINASE INHIBITOR (TKI)” (INSERM (Institut National de la Santé et de la Recherche …, priority 2020, published 2023).

System: innate CD8(+) T-cells
Assay: Ex vivo flow cytometry of peripheral blood CD8(+) T-cell subsets in CML patients under therapy (DASA-PEGIFN phase II trial)
Parameters: species or system human
Conditions: for innate CD8(+) T-cell frequency (mean±SD): 3 months after initiation of therapy
Description: The phase II DASA-PEGIFN clinical trial was registered with EudraCT number 2012-003389-42. Briefly, newly diagnosed Ph^+ CP-CML patients were treated first-line with dasatinib at 100 mg/day. At 3 months, they were assigned to receive Peg-IFNα2b associated to dasatinib when platelets>100×109/L, neutrophils>1.5×10^9/L and lymphocytes<4.0×109/L counts were achieved. Venous blood was collected on heparin at several time points: diagnosis, 3, 6, 12 and 24 months after initiation of treatment Among the 61 patients receiving Dasatinib+Peg-IFNα2b therapy, we analysed samples from 40 patients. Two out of them were excluded for technical issues. See Table 1 for detailed patient's characteristics. Patients response to treatment were classified conforming to 2013 ELN criteria. Major molecular response was defined as a ratio of BCR-ABL1/ABL1≤0.1% on the international scale (IS). A ratio of BCR-ABL1/ABL1IS≤0.01% defined a molecular response of 4-log reduction or in our work a deep molecular response (DMR). All patients gave informed consent in accordance with the Declaration of Helsinki for participation in the study, which was approved by the scientific committee of the INSERM CIC-1402 (Poitiers, France) and Comité Protection Personnes Recherche Biomédicale Région Poitou Charentes (protocol number 12.10.31).
Peripheral blood mononuclear cells (PBMC) were isolated from blood samples by density gradient centrifugation (Histopaque®-1077, Sigma-Aldrich, St Louis, Mo., US), resuspended in 90% Fetal Bovine Serum (10270106, Gibco®, Thermo Fisher Scientific, Waltham, Mass., US) with 10% DMSO (D2650, Sigma-Aldrich), and cryopreserved at −80° C. or in liquid nitrogen until use.
Phenotypic analysis of cells from HD and CML patients was performed by ex vivo flow cytometry. All monoclonal antibodies (mAbs) used in this study are listed in Supplementary Table 2. The expression of the different markers was assessed by staining PBMC with appropriate combinations of mAbs. panKIR/NKG2A referred to staining with the mix of the three following antibodies from Miltenyi Biotec (Bergisch Gladbach, Germany) KIR2D, KIR3DL1/KIR3DL2 (CD158e/k) and NKG2A (CD159a). Dead cells were excluded using the Live/Dead® Fixable NearIR Dead Cell Stain kit (L10119, Invitrogen™, Thermo Fisher Scientific). For intranuclear Eomes staining, cells were permeabilized with anti-human Foxp3 staining kit according to the manufacturer's protocol (73-5776-40, eBioscience™, Thermo Fisher Scientific). Flow data were acquired on a FACSVerse flow cytometer (Becton, Dickinson & Compagny, Franklin Lakes, N.J., US) with FACSuite™ software (Becton, Dickinson & Compagny) and analyzed using FlowJo™ v10 (Becton, Dickinson & Compagny). Results are expressed as either percent positive cells or as mean fluorescence intensity (MFI).
Results are shown as box and whiskers with 5 percentile, median and 95 percentile unless indicated otherwise. All statistical data analyses were performed using GraphPad Prism v7.0 (GraphPad software, Inc). Wilcoxon and Mann-Whitney two-tailed test were used for paired and unpaired data analysis, respectively. A p value<0.05 was considered significant. Cumulative response rates were calculated using the cumulative incidence approach and Mantle-Cox method. The cut-off point for innate CD8(+) T-cells was optimized by receiver operating characteristics (ROC) curves and the Youden index using the logarithm of innate CD8(+) T-cell frequency at diagnosis and after 3 months of therapy. Patients were dichotomized according to their low or high percentage of innate CD8(+) T-cells. Data are presented as Kaplan-Meier curves.

[1] = after 3 months of therapy as compared to diagnosis

Cc1nc(Nc2ncc(C(=O)Nc3c(C)cccc3Cl)s2)cc(N2CCN(CCO)CC2)n1 [dasatinib, N-(2-chloro-6-methylphenyl)-2-[[6-[4-(2-hydroxyethyl)-1-piperazinyl]-2-methyl-4-pyrimidinyl]amino]-5-thiazole-carboxamide monohydrate]
innate CD8(+) T-cell frequency (mean±SD) (M12-DMR group (DMR achieved at 12 months)): 9.14±6.54% | innate CD8(+) T-cell frequency (mean±SD) (M12-noDMR group (no DMR at 12 months)): 3.48±2.43% | frequency of innate CD8(+) T-cells (mean±SD) (CML patients, whole group, after 3 months of therapy, among total CD8+TCR-αβ+ cells, 3.78±3.39% at diagnosis): 5.98±5.43% | Eomes and CD49d expression levels of innate CD8(+) T-cells [1]: significant increase | conventional-memory CD8(+) T-cell frequency [1]: concomitantly increased | naive CD8(+) T-cell frequency [1]: decreased
